Results taken from ChEMBL document CHEMBL5465560, “Selectivity Literature for EUbOPEN Chemogenomic Library” (2024).

Tests used:
[1] = biological target: Calcium/calmodulin-dependent protein kinase type 1G (Homo sapiens) (UniProt Q96NX5); details: at 10 µM
[2] = biological target: Activin receptor type-2A (Homo sapiens) (UniProt P27037); test: Selectivity interaction (KinomeScan (DiscoverX)) EUB0000666a ACVR2A; details: at 10 µM
[3] = biological target: T1, Protein kinase C epsilon type (Homo sapiens) (UniProt Q02156); test: Selectivity interaction (KinomeScan (DiscoverX)) EUB0000666a PRKCE; details: at 10 µM
T1 sequence (whole entry): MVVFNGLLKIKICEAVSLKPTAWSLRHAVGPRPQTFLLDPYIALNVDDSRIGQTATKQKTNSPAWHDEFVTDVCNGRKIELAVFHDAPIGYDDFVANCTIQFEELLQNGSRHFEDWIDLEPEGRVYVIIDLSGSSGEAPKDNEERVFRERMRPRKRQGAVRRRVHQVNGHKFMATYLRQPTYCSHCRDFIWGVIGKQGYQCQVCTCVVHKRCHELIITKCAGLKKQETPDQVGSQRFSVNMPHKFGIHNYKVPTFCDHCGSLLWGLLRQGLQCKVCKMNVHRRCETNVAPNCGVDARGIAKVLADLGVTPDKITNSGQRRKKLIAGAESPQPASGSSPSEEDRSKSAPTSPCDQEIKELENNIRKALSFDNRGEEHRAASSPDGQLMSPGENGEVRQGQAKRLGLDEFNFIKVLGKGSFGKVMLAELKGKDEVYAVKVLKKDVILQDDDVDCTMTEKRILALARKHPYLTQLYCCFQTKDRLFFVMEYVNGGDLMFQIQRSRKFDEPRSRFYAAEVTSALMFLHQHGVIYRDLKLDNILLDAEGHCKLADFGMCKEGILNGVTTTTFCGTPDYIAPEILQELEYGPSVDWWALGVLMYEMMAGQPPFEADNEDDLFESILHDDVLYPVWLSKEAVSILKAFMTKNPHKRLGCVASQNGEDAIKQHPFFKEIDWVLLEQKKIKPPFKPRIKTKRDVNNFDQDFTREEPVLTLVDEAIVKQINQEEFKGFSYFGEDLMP

[4] = biological target: T2, Mitogen-activated protein kinase kinase kinase 5 (Homo sapiens) (UniProt Q99683); test: Selectivity interaction (ActivX KiNativ screen (kinase selectivity in THP-1 cell lysates)) EUB0000639a MAP3K5; type: subcellular; details: lysate, at 0.04 µM
T2 sequence (whole entry): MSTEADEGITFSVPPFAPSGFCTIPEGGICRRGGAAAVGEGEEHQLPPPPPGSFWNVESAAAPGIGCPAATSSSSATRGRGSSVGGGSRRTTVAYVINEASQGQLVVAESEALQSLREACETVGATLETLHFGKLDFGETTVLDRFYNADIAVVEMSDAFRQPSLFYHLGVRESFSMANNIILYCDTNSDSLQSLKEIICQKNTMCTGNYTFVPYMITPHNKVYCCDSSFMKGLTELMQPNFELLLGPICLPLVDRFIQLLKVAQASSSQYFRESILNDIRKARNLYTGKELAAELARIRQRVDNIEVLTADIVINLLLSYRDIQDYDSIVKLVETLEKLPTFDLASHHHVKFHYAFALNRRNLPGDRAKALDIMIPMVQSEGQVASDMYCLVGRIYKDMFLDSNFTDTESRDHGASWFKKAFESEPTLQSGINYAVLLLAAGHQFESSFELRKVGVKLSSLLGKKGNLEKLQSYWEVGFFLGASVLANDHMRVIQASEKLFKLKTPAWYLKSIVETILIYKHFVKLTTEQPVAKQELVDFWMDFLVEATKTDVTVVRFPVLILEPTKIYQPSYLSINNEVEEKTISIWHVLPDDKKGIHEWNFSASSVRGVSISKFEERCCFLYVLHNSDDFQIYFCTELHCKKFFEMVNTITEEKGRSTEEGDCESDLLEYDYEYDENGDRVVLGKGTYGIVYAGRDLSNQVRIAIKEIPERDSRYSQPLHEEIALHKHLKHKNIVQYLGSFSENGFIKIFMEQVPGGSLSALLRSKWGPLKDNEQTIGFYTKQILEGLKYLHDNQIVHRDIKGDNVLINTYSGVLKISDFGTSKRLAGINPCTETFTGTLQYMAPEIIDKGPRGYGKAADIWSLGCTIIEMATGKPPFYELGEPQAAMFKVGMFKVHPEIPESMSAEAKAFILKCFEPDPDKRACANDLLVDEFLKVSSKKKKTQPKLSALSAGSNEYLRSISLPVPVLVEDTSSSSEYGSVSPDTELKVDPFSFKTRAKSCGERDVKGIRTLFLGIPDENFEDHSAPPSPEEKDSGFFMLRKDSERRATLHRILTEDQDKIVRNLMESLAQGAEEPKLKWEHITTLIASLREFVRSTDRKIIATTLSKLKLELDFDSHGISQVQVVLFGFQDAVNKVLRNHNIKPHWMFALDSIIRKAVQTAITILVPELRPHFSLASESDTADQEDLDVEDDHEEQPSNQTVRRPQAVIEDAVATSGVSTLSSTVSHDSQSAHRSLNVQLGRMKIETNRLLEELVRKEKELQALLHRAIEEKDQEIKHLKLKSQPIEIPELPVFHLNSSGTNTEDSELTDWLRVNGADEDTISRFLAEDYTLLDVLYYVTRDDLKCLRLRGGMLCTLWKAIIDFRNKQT

[5] = biological target: Serine/threonine-protein kinase PLK1 (Homo sapiens, UniProt P53350); test: Selectivity interaction (SelectScreen profiling (Invitrogen)) EUB0000607a PLK1; details: at 2 µM
[6] = test system: Phosphatidylinositol 4,5-bisphosphate 3-kinase catalytic subunit alpha isoform (Homo sapiens), P42336 [H1047L]; details: at 10 µM
[7] = biological target: Serine/threonine-protein kinase 32B (Homo sapiens) (UniProt Q9NY57); test: Selectivity interaction (KinomeScan (DiscoverX)) EUB0000607a STK32B; details: at 10 µM
[8] = biological target: T3, Serine/threonine-protein kinase 17B (Homo sapiens) (UniProt O94768); test: Selectivity interaction (KinomeScan (DiscoverX)) EUB0001049a STK17B; details: at 1 µM
T3 sequence (whole entry): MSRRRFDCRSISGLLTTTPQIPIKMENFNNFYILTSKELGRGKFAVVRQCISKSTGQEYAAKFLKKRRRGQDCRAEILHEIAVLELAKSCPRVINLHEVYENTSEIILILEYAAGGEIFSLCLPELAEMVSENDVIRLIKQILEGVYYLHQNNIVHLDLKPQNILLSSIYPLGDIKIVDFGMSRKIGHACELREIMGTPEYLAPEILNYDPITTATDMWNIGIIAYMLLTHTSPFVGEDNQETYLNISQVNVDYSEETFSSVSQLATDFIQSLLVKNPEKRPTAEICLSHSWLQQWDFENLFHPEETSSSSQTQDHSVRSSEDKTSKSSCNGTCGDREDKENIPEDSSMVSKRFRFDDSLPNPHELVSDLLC

[9] = biological target: 5'-AMP-activated protein kinase catalytic subunit alpha-1 (Homo sapiens, UniProt Q13131); test: Selectivity interaction (Kinase screening (Upstate/Millipore)) EUB0000604a PRKAA1
5'-AMP-activated protein kinase catalytic subunit alpha-1, sequence (Q13131 whole entry, looked up): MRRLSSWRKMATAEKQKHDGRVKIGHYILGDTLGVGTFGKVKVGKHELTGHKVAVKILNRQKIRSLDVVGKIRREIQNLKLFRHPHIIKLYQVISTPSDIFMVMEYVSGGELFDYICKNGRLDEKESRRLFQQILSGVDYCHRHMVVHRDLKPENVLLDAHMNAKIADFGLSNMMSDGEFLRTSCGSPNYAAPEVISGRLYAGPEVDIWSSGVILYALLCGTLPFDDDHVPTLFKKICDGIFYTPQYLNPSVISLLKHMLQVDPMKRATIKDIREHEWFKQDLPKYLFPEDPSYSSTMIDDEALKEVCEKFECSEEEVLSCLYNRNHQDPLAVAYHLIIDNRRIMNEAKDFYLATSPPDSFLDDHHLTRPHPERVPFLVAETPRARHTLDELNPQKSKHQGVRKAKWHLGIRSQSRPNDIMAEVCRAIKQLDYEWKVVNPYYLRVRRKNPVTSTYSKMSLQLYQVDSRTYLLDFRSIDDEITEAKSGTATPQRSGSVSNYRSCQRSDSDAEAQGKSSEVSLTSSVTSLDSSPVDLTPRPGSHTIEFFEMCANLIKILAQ

Serine/threonine-protein kinase PLK1, sequence (P53350 whole entry, canonical isoform): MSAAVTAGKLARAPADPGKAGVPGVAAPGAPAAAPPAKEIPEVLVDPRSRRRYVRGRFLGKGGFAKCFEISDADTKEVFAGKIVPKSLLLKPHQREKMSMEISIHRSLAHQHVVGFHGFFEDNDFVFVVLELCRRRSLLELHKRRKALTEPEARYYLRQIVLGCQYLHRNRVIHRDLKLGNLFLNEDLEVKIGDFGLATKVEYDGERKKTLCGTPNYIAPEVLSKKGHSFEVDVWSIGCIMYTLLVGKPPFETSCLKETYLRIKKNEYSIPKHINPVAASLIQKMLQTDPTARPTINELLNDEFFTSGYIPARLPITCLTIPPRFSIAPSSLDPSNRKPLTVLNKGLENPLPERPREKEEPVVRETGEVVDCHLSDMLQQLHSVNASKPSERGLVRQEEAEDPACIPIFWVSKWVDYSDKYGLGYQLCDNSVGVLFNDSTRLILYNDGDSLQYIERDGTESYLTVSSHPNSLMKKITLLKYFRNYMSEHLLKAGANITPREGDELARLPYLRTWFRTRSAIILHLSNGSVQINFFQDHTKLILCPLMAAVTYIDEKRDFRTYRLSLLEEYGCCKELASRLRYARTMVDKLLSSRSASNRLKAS
Phosphatidylinositol 4,5-bisphosphate 3-kinase catalytic subunit alpha isoform (Homo sapiens), P42336 [H1047L], sequence (P42336 whole entry H1047L, canonical isoform): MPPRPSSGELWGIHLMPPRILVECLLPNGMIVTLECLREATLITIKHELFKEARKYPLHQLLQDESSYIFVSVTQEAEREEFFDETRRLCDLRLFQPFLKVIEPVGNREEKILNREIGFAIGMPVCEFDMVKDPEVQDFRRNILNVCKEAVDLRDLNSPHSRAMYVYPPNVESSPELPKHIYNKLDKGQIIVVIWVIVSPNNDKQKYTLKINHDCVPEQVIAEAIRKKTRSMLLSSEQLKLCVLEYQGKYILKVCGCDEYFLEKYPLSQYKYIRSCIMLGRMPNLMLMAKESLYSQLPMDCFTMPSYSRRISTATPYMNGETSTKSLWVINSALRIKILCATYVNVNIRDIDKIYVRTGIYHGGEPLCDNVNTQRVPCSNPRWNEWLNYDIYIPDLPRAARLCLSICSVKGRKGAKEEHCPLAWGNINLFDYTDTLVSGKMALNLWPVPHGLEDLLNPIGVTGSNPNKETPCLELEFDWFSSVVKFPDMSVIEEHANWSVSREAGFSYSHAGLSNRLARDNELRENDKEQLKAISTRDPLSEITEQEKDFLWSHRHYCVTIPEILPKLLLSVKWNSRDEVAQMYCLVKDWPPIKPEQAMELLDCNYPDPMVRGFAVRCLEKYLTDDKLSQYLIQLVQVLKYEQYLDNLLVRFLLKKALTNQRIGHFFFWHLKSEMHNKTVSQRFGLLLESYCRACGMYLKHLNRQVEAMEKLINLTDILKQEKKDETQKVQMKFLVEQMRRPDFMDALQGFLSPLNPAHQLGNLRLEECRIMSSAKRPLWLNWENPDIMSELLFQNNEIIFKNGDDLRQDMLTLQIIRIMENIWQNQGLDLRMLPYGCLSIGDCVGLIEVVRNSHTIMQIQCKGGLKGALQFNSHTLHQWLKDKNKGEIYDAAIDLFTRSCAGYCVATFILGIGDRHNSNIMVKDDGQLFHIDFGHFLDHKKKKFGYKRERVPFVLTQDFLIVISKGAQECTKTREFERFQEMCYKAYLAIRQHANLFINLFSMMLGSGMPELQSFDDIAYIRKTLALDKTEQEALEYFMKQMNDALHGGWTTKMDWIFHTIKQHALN
Serine/threonine-protein kinase 32B (Homo sapiens), sequence (Q9NY57 whole entry): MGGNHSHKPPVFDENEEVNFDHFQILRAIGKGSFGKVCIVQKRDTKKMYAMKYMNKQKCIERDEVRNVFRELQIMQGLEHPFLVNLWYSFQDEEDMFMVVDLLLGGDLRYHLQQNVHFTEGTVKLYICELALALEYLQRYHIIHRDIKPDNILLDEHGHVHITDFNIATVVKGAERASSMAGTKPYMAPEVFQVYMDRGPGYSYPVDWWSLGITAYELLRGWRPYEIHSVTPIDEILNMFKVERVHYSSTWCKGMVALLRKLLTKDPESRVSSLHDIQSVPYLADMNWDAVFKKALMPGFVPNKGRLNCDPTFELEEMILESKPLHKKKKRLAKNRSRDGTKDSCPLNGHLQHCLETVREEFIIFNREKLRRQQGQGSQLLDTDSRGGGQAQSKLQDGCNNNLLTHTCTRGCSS
Activin receptor type-2A (Homo sapiens), sequence (P27037 whole entry): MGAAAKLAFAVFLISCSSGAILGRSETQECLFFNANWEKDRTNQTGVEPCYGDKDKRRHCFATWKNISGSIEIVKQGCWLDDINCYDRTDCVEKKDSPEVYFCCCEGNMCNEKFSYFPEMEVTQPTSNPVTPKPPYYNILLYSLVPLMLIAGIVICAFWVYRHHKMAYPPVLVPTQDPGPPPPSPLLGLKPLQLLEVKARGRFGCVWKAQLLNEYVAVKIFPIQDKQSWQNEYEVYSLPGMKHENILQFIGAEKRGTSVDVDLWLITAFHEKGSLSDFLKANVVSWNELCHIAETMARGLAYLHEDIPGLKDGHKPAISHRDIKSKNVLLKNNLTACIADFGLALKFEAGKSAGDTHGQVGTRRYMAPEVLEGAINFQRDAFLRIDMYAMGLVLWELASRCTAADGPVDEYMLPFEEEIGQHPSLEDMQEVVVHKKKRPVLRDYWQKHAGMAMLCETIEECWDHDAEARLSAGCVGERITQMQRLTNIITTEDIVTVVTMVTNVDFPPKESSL
Calcium/calmodulin-dependent protein kinase type 1G (Homo sapiens), sequence (Q96NX5 whole entry): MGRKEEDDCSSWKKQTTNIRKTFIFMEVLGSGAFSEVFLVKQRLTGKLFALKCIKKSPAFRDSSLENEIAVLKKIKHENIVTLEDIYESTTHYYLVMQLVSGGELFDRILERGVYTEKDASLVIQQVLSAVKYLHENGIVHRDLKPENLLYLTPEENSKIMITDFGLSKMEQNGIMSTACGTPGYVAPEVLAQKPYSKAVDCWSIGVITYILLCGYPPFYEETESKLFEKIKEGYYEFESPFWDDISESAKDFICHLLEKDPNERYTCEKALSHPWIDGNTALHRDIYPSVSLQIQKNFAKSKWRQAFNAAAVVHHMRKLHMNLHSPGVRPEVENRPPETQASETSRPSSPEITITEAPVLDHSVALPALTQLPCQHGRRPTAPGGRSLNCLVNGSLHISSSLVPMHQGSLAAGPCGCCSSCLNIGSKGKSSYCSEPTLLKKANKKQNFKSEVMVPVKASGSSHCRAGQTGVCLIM

CCN(CC)CCCCNc1ncc2cc(-c3cc(OC)cc(OC)c3)c(NC(=O)NC(C)(C)C)nc2n1
% of control [1]: 100%

O=C(NOC[C@H](O)CO)c1ccc(F)c(F)c1Nc1ccc(I)cc1F
% of control [2]: 80% | % of control [3]: 100%

CC[C@@H]1[C@H](F)C(=O)N[C@@H]1COc1nccc2cc(C(N)=O)c(OC)cc12 [ZIMLOVISERTIB]
% of inhibition [4]: -7.7%

CNC(=O)Nc1ccc(-c2nc(N3CC4CCC(C3)O4)c3cnn(C4CCC5(CC4)OCCO5)c3n2)cc1
% of inhibition [5]: -4% | % of control [6]: 15% | % of control [7]: 86%

COc1cc(Nc2nc(C)cc(-c3cnn4nc(OC)ccc34)n2)cc(C(F)(F)F)c1
% of control [8]: 81%

Cc1cnc(Nc2ccc(F)cc2Cl)nc1-c1c[nH]c(C(=O)N[C@H](CO)c2cccc(Cl)c2)c1
% of inhibition [9]: 5%
